Data reported in US20230114811A1, “GLYCOSYLTRANSFERASES, POLYNUCLEOTIDES ENCODING THESE AND METHODS OF USE” (THE NEW ZEALAND INSTITUTE FOR PLANT AND FOOD RESEARCH …, priority 2020, published 2023).
Where “and” joins values, the source holds several entries; their conditions need not be identical. Equal entries are not always repeated.

Assays:
[1] = tested on: recombinant PGT2 cloned from M. toringoides; experiment: Substrate specificity of recombinant PGT2, UDP-glucoside as sugar donor, products determined by LC-MS/MS; assay type: biochemical; conditions: amount of product formed relative to conversion of phloretin to trilobatin set at 100%
Description: The products of each reaction were determined by LC-MS/MS. […] Quercetin-3-O-glucoside was detected as a reaction product using quercetin (FIG. 8A-F) with a lower conversion rate of 9.1% (Table 7).

[2] = Jia et al., 2008; cited from earlier work
[3] = Isosweetness comparison test between trilobatin and sucrose (sensory panel); assay type: in vivo; conditions: n=5 participants
Description: Five participants with high acuity for trilobatin in the triangle test were selected to perform the isosweetness comparison test between trilobatin and sucrose. Each participant was given one trilobatin solution and eight sucrose solutions at different concentrations to taste. Solutions were prepared as described above for the apple leaf teas. The trilobatin solutions were presented at 12.3, 18.5, 27.8 and 41.7 mg per 100 ml, while the sucrose solutions were presented at 296.3, 444.4, 592.6, 666.7, 888.9, 1000, 1333.3 and 2000 mg per 100 ml.

[4] = substrate: O=C(CCc1ccc(O)cc1)c1c(O)cc(O)cc1O; experiment: Km/Vmax determination for recombinant PGT2 (glycosyltransferase activity assay, HPLC); assay type: biochemical, M. toringoides; conditions: other: phloretin 4-500 μM, fixed UDP-glucose 500 μM, pH 9.0, 0.1 M Tris-HCl, 40° C., 10 min

Molecule	Conversion (%) [1]	other results
O=C(CCc1ccc(O)c(O)c1)c1c(O)cc(O)cc1O [3-OH phloretin]	58.7 ± 2.3%	–
O=C(O)/C=C/c1ccc(O)cc1 [4-coumaric acid]	0%	–
O=C(O)/C=C/c1ccc(O)c(O)c1 [caffeic acid]	0%	–
O=C(/C=C/c1ccc(O)c(O)c1)O[C@@H]1C[C@](O)(C(=O)O)C[C@@H](O)[C@H]1O [chlorogenic acid]	0%	–
O=C1C[C@@H](c2ccc(O)cc2)Oc2cc(O)cc(O)c21 [naringenin]	0%	–
COc1ccc([C@@H]2CC(=O)c3c(O)cc(O[C@@H]4O[C@H](CO)[C@@H](O)[C@H](O)[C@H]4O[C@@H]4O[C@@H](C)[C@H](O)[C@@H](O)[C@H]4O)cc3O2)cc1O [neohesperidin]	0%	–
O=C(CCc1ccc(O)cc1)c1c(O)cc(O)cc1O [phloretin, 3-(4-hydroxyphenyl)-1-(2,4,6-trihydroxyphenyl)propan-1-one]	100.0 ± 6.1%	–
O=c1c(O)c(-c2ccc(O)c(O)c2)oc2cc(O)cc(O)c12 [quercetin]	9.1% and 9.1 ± 0.1%	–
O=C(CCc1ccc(O)c(O)c1)c1c(O)cc(O[C@@H]2O[C@H](CO)[C@@H](O)[C@H](O)[C@H]2O)cc1O [sieboldin, 3-hydroxyphloretin-4′-O-glucoside]	0%	–
O=C(CCc1ccc(O)cc1)c1c(O)cc(O[C@@H]2O[C@H](CO)[C@@H](O)[C@H](O)[C@H]2O)cc1O [trilobatin, 1-[2,6-dihydroxy-4-[(2S,3R,4S,5S,6R)-3,4,5-trihydroxy-6-(hydroxymethyl)oxan-2-yl]oxyphenyl]-3-(4-hydroxyphenyl)propan-1-one]	0%	sweeter than sucrose (reported) [2]: ~100 ×; sweetness detection threshold [2]: 3 to 200 mg/L; Isosweetness (trilobatin vs sucrose) ([3]; R^2=0.98, mean±SE): 35.2+1.66; sweeter than sucrose ([3]; trilobatin purified from leaves of crabapple hybrid ‘Adams’): ~35 fold
PGT2 (Malus toringoides) (protein) MEATAIVLYPSPLIGHLVSMVELGKLILTRHPSLCIHILITTPPYRANDTDSYITSVSAANPSLIFHHLPTISLPPSLASSRNHEILAFELAPLYNPNVHQALVSISHNFSIKAFVMDFFCYVGLPVATELNIPSYFFFTSSANTLASSLYLPTLHNIIDKSLKDLNILLNIPGVPPMPSSDMPQPTLDRNQKVYEHVQGSSKQFPKSAGIIVNTFESLEPRALRAIWDGLCLPENVPTPPVYPIGPLIVSHGGGGRGAECLKWLDSQPSGSVVFLCFGSLGLFSKEQLKEIAIGLENSGHRFLWVVRNPPAQNQIGLDIKESDPELKSLLPDGFLDRTKDRGLVVKSWAPQAAVLNHNSVGGFVSHCGWNSVLESVCAGVPIVAWPLYAEQRFNRVVLVKEIKIAMPMNESEDGFVRAAEVEKRITELMDSEEGASIRKRTKDLQNNAHAALGETGSSGVALTKLLEFWGKTC	–	Km [4]: 18.0 ± 6.7 µM; Vmax [4]: 1.85 ± 0.17 nmol/min
